Test [1] has as its target hDRD2 (Homo sapiens (Human), UniProt P14416). The test can be described thus: cell-based. To be noted: for Emax: read-out: hDRD2 % Emax ± SEM.
Procedure: (§1) The ability of select compounds according to the present invention to activate hSSTR2 and hDRD2 was determined by the intracellular calcium mobilization assay using FLIPR Calcium 4 assay kit (Molecular Devices).
(§2) Cells expressing hSSTR2 or hDRD2 were plated in 384-well microplates in tissue culture media and incubated for 16-24 hours at 37° C. in a humidified atmosphere with 5% CO2. Medium was replaced by loading buffer containing Hank's buffered saline, 20 mM HEPES, 2.5 mM probenecid and Calcium 4 dye, and the plates were incubated at 37° C. for 60 minutes.
In test [2] the target is hSSTR2 (Homo sapiens (Human), UniProt P30874). The test can be described thus: Intracellular calcium mobilization assay (FLIPR Calcium 4), hSSTR2.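 On all read-outs here: agonist activity read as intracellular calcium rise in cells expressing human SSTR2, loaded with a calcium-sensitive dye for 60 min at 37 °C, measured by FLIPR.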 The format is cell-based. To be noted: for Emax: read-out: hSSTR2 % Emax ± SEM; for improvement in EC50 over Reference Compound A: Student's t-test, one-tailed, p <0.05.
Chain of hSSTR2 (P30874 whole entry): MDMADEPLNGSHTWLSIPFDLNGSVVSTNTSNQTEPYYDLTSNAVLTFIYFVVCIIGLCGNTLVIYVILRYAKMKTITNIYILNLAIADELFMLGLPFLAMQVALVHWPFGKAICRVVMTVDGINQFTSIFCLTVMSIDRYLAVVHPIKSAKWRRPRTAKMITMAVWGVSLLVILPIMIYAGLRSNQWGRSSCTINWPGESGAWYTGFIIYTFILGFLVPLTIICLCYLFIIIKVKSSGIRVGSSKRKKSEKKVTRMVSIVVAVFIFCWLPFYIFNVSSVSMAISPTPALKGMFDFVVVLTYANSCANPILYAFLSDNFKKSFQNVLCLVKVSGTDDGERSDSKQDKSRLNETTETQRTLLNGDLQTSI
Procedure: as §1, §2

Read-outs that look alike come from different tables or passages of the source. Numbered stars: 1 amine (or outer) side, 2 acyl side, 3 side chain; on linkers, the order of the positions; unused ones are H or OH. Bridge positions count the residues as written; N and C are the ends. Square brackets hold non-standard residues; d marks the D form. Peptide text beside a SMILES is read from it. X1 = CN1C[C@H](CSCCN(CCSC[C@@H]2C[C@@H]3c4cccc5[nH]cc(c45)C[C@H]3N(C)C2)[C@H](CCCCN[*:2])C(=O)[*:1])C[C@@H]2c3cccc4[nH]cc(c34)C[C@H]21; Phe(4-F) = N[C@@H](Cc1ccc(F)cc1)C(=O)O; 4Pal = N[C@@H](Cc1ccncc1)C(=O)O

By EC50 is commonly meant the midpoint of the concentration-response curve. What is called Emax is the size of the effect at its maximum, as opposed to the concentration needed. Take `CC(=O)N(CCCNC(CN[C@@H]1CCCCNC(=O)[C@H](Cc2ccc(F)cc2)NC(=O)[C@H]([C@@H](C)O)NC(=O)[C@H](CCCCN)NC(=O)[C@@H](Cc2c[nH]c3ccccc23)NC(=O)[C@H](Cc2ccccc2)NC(=O)[C@H](Cc2ccccc2)NC(=O)[C@H](CCCNC(=N)N)NC1=O)Cc1ccc(O)cc1)C[C@@H]1C[C@@H]2c3cccc4[nH]cc(c34)C[C@H]2N(C)C1` (single isomer, unassigned) [Compound 28A, 3-[N-acetyl-N-(D-6-methyl-8β-ergolinylmethyl)]-aminopropionyl-psi(CH2NH)-Tyr-psi(CH2NH)-cyclo(DLys-Arg-Phe-Phe-DTrp-Lys-Thr-4FPhe)]: the figures for the 50% effective concentration (EC50) in test [1] and in test [2] were 65.5 ± 3.6 nM and 14.9 ± 6.3 nM, respectively. The Emax in test [2] was 109 ± 20%. For `C[C@@H](O)[C@@H]1NC(=O)[C@H](CCCCN)NC(=O)[C@@H](Cc2c[nH]c3ccccc23)NC(=O)[C@H](Cc2ccccc2)NC(=O)[C@H](Cc2ccccc2)NC(=O)[C@H](CCCNC(=N)N)NC(=O)[C@H](NC[C@H](CCCCNC(=O)CSC[C@@H]2C[C@@H]3c4cccc5[nH]cc(c45)C[C@H]3N(C)C2)NC(=O)CSC[C@@H]2C[C@@H]3c4cccc5[nH]cc(c45)C[C@H]3N(C)C2)CCCCNC(=O)[C@H](Cc2ccc(F)cc2)NC1=O` [Compound 47, Dop1-Lys(Dop1)-psi(CH2NH)-cyclo(DLys-Arg-Phe-Phe-DTrp-Lys-Thr-4FPhe)], a half-maximal effect in test [1] (EC50) was put at 46.6 ± 12.2 nM. For the same compound, in test [2], the EC50 stood at 77.5 ± 19 nM and the Emax is 96.2 ± 5.9%. Also, the “improvement in % Emax over Reference Compound C” value in test [2] (calcium mobilization) is “statistically significant improvement”. `C[C@@H](O)[C@@H]1NC(=O)[C@H](CCCCN)NC(=O)[C@@H](Cc2c[nH]c3ccccc23)NC(=O)[C@H](Cc2ccccc2)NC(=O)[C@H](Cc2ccccc2)NC(=O)[C@H](CCCNC(=N)N)NC(=O)[C@H](NCCSC[C@@H]2C[C@@H]3c4cccc5[nH]cc(c45)C[C@H]3N(C)C2)CCCCNC(=O)[C@H](Cc2ccc(F)cc2)NC1=O` [Compound 6, Dop1-psi(CH2NH)-cyclo(DLys-Arg-Phe-Phe-DTrp-Lys-Thr-4FPhe)]: the maximal effect (Emax) in test [1] came out at 88.3 ± 5.1%. In test [2], the “improvement in EC50 over Reference Compound A” value is given as “statistically significant improvement” and the Emax was 99.1 ± 0.6%. `C[C@@H](O)[C@@H]1NC(=O)[C@H](CCCCN)NC(=O)[C@@H](Cc2c[nH]c3ccccc23)NC(=O)[C@H](Cc2ccncc2)NC(=O)[C@H](Cc2ccccc2)NC(=O)[C@H](CCCNC(=N)N)NC(=O)[C@H](NCCS(=O)(=O)C[C@@H]2C[C@@H]3c4cccc5[nH]cc(c45)C[C@H]3N(C)C2)CCCCNC(=O)[C@H](Cc2ccc(O)cc2)NC1=O` [Compound 20, Dop1(SO2)-psi(CH2NH)-cyclo(DLys-Arg-Phe-4Pal-DTrp-Lys-Thr-Tyr)]: in test [1], the EC50 was 7.4 ± 1.5 nM. In test [2], the EC50 amounted to 0.7 ± 0.1 nM and the Emax worked out at 100.2 ± 0.9%. For the compound `C[C@@H](O)[C@@H]1NC(=O)[C@H](CCCCN)NC(=O)[C@@H](Cc2c[nH]c3ccccc23)NC(=O)[C@H](Cc2ccccc2)NC(=O)[C@H](Cc2ccccc2)NC(=O)[C@H](CCCNC(=N)N)NC(=O)[C@H](NC[C@H](Cc2ccc(O)cc2)NC(=O)CCN(C[C@@H]2C[C@@H]3c4cccc5[nH]cc(c45)C[C@H]3N(C)C2)S(C)(=O)=O)CCCCNC(=O)[C@H](Cc2ccc(F)cc2)NC1=O` [Compound 42, [N-(D-6-methyl-8β-ergolinylmethyl)-N-(methylsulfonyl)]-aminopropionyl-Tyr-psi(CH2NH)-cyclo(DLys-Arg-Phe-Phe-DTrp-Lys-Thr-4FPhe)], the maximal response (Emax) in test [1] was determined as 94.5 ± 0.3%; in test [2], 78.6 ± 2.3%. For the compound `C[C@@H](O)[C@@H]1NC(=O)[C@H](CCCCN)NC(=O)[C@@H](Cc2c[nH]c3ccccc23)NC(=O)[C@H](Cc2ccncc2)NC(=O)[C@H](Cc2ccccc2)NC(=O)[C@H](CCCNC(=N)N)NC(=O)[C@H](N(CCSC[C@@H]2C[C@@H]3c4cccc5[nH]cc(c45)C[C@H]3N(C)C2)CCSC[C@@H]2C[C@@H]3c4cccc5[nH]cc(c45)C[C@H]3N(C)C2)CCCCNC(=O)[C@H](Cc2ccccc2)NC1=O` [Compound 29, bis[Dop1-psi(CH2N)]-cyclo(DLys-Arg-Phe-4Pal-DTrp-Lys-Thr-Phe)] (RF[4Pal][dW]KTF; linker N-C via X1), in test [2], the “improvement in EC50 over Reference Compound A” value is given as “statistically significant improvement” and the Emax came to 97 ± 4.9%. For the compound `C[C@@H](O)[C@@H]1NC(=O)[C@H](CCCCN)NC(=O)[C@@H](Cc2c[nH]c3ccccc23)NC(=O)[C@H](Cc2ccncc2)NC(=O)[C@H](Cc2ccccc2)NC(=O)[C@H](CCCNC(=N)N)NC(=O)[C@H](NC[C@H](CCCCNC(=O)C[S+]([O-])C[C@@H]2C[C@@H]3c4cccc5[nH]cc(c45)C[C@H]3N(C)C2)NC(=O)C[S+]([O-])C[C@@H]2C[C@@H]3c4cccc5[nH]cc(c45)C[C@H]3N(C)C2)CCCCNC(=O)[C@H](Cc2ccccc2)NC1=O` (stereo partly drawn) [Compound 17, Dop1(SO)-Lys[Dop1(SO)]-psi(CH2NH)-cyclo(DLys-Arg-Phe-4Pal-DTrp-Lys-Thr-Phe)], the Emax in test [2] came out at 105 ± 4.2%. Consider `C[C@@H](O)[C@@H]1NC(=O)[C@H](CCCCN)NC(=O)[C@@H](Cc2c[nH]c3ccccc23)NC(=O)[C@H](Cc2ccccc2)NC(=O)[C@H](Cc2ccccc2)NC(=O)[C@H](CCCNC(=N)N)NC(=O)[C@H](NCCSC[C@@H]2C[C@@H]3c4cccc5[nH]cc(c45)C[C@H]3N(C)C2)CCCCNC(=O)[C@H](Cc2cc(F)cc(F)c2)NC1=O` [Compound 6B, Dop1-psi(CH2NH)-cyclo(DLys-Arg-Phe-Phe-DTrp-Lys-Thr-3,5FPhe)], for which, in test [2], the Emax is 95.2 ± 6.8%. Regarding `C[C@@H](O)[C@@H]1NC(=O)[C@H](CCCCN)NC(=O)[C@@H](Cc2c[nH]c3ccccc23)NC(=O)[C@H](Cc2ccncc2)NC(=O)[C@H](Cc2ccccc2)NC(=O)[C@H](CCCNC(=N)N)NC(=O)[C@H](NCCSC[C@@H]2C[C@@H]3c4cccc5[nH]cc(c45)C[C@H]3N(C)C2)CCCCNC(=O)[C@H](Cc2ccccc2)NC1=O` [Compound 23, Dop1-psi(CH2NH)-cyclo(DLys-Arg-Phe-4Pal-DTrp-Lys-Thr-Phe)], in test [2], the “improvement in EC50 over Reference Compound A” value is on record as “statistically significant improvement” and the Emax came to 95.4 ± 3.3%. As for `C[C@@H](O)[C@@H]1NC(=O)[C@H](CCCCN)NC(=O)[C@@H](Cc2c[nH]c3ccccc23)NC(=O)[C@H](Cc2ccncc2)NC(=O)[C@H](Cc2ccccc2)NC(=O)[C@H](CCCNC(=N)N)NC(=O)[C@H](N(CCSC[C@@H]2C[C@@H]3c4cccc5[nH]cc(c45)C[C@H]3N(C)C2)CCSC[C@@H]2C[C@@H]3c4cccc5[nH]cc(c45)C[C@H]3N(C)C2)CCCCNC(=O)[C@H](Cc2ccc(O)cc2)NC1=O` [Compound 35, bis[Dop1-psi(CH2N)]-cyclo(DLys-Arg-Phe-4Pal-DTrp-Lys-Thr-Tyr)] (RF[4Pal][dW]KTY; linker N-C via X1), the maximal effect (Emax) in test [2] (maximal effect in percentage of the maximal effect of SRIF-14) came out at 91.2 ± 11%. As to `C[C@@H](O)[C@@H]1NC(=O)[C@H](CCCCN)NC(=O)[C@@H](Cc2c[nH]c3ccccc23)NC(=O)[C@H](Cc2ccccc2)NC(=O)[C@H](Cc2ccccc2)NC(=O)[C@H](CCCNC(=N)N)NC(=O)[C@H](NCCCCC[C@@H]2C[C@@H]3c4cccc5[nH]cc(c45)C[C@H]3N(C)C2)CCCCNC(=O)[C@H](Cc2ccc(F)cc2)NC1=O` [Compound 3, (D-6-methyl-8β-ergolinyl)-pentanoyl-psi(CH2NH)-cyclo(DLys-Arg-Phe-Phe-DTrp-Lys-Thr-4FPhe)], the Emax in test [2] is 98.8 ± 19.2%. `C[C@@H](O)[C@@H]1NC(=O)[C@H](CCCCN)NC(=O)[C@@H](Cc2c[nH]c3ccccc23)NC(=O)[C@H](Cc2ccccc2)NC(=O)[C@H](Cc2ccccc2)NC(=O)[C@H](CCCNC(=N)N)NC(=O)[C@H](N(CCSC[C@@H]2C[C@@H]3c4cccc5[nH]cc(c45)C[C@H]3N(C)C2)CCSC[C@@H]2C[C@@H]3c4cccc5[nH]cc(c45)C[C@H]3N(C)C2)CCCCNC(=O)[C@H](Cc2ccc(F)cc2)NC1=O` [Compound 39, bis[Dop1-psi(CH2N)]-cyclo(DLys-Arg-Phe-Phe-DTrp-Lys-Thr-4FPhe)] (RFF[dW]KT[Phe(4-F)]; linker N-C via X1): the Emax in test [2] was determined as 87.1 ± 4.7%. Consider `C[C@@H](O)[C@@H]1NC(=O)[C@H](CCCCN)NC(=O)[C@@H](Cc2c[nH]c3ccccc23)NC(=O)[C@H](Cc2ccccc2)NC(=O)[C@H](Cc2ccccc2)NC(=O)[C@H](CCCNC(=N)N)NC(=O)[C@H](NCCSC[C@@H]2C[C@@H]3c4cccc5[nH]cc(c45)C[C@H]3N(C)C2)CCCCNC(=O)[C@H](Cc2ccccc2)NC1=O` [Compound 26, Dop1-psi(CH2NH)-cyclo(DLys-Arg-Phe-Phe-DTrp-Lys-Thr-Phe)], for which the maximum response (Emax) in test [2] was determined as 90.2 ± 12.6%. For `C[C@@H](O)[C@@H]1NC(=O)[C@H](CCCCN)NC(=O)[C@@H](Cc2c[nH]c3ccccc23)NC(=O)[C@H](Cc2ccccc2)NC(=O)[C@H](Cc2ccccc2)NC(=O)[C@H](CCCNC(=N)N)NC(=O)[C@H](NC[C@H](Cc2ccc(O)cc2)NC(=O)CS(=O)(=O)C[C@@H]2C[C@@H]3c4cccc5[nH]cc(c45)C[C@H]3N(C)C2)CCCCNC(=O)[C@H](Cc2ccc(F)cc2)NC1=O` [Compound 19, Dop1(SO2)-Tyr-psi(CH2NH)-cyclo(DLys-Arg-Phe-Phe-DTrp-Lys-Thr-4FPhe)], the maximum response (Emax) in test [2] was 99.5 ± 1.8%.

Regarding `C[C@@H](O)[C@@H]1NC(=O)[C@H](CCCCN)NC(=O)[C@@H](Cc2c[nH]c3ccccc23)NC(=O)[C@H](Cc2ccccc2)NC(=O)[C@H](Cc2ccccc2)NC(=O)[C@H](CCCNC(=N)N)NC(=O)[C@H](NCCSC[C@@H]2C[C@@H]3c4cccc5[nH]cc(c45)C[C@H]3N(C)C2)CCCCNC(=O)[C@H](Cc2ccc(F)c(F)c2)NC1=O` [Compound 6A, Dop1-psi(CH2NH)-cyclo(DLys-Arg-Phe-Phe-DTrp-Lys-Thr-3,4FPhe)], the Emax in test [2] came to 99.5 ± 2.6%. Same read-out and setting: for `C[C@@H](O)[C@@H]1NC(=O)[C@H](CCCCN)NC(=O)[C@@H](Cc2c[nH]c3ccccc23)NC(=O)[C@H](Cc2ccncc2)NC(=O)[C@H](Cc2ccccc2)NC(=O)[C@H](CCCNC(=N)N)NC(=O)[C@H](NC[C@H](Cc2ccc(O)cc2)NC(=O)C[S+]([O-])C[C@@H]2C[C@@H]3c4cccc5[nH]cc(c45)C[C@H]3N(C)C2)CCCCNC(=O)[C@H](Cc2ccccc2)NC1=O` (stereo partly drawn) [Compound 15, Dop1(SO)-Tyr-psi(CH2NH)-cyclo(DLys-Arg-Phe-4Pal-DTrp-Lys-Thr-Phe)] the value was 99.9 ± 1.9%.

Source of the values: US8952128B2, “Somatostatin-dopamine chimeric analogs” (priority 2012, dated 2015).
